This test addresses T1, human Cereblon WT GST-tagged protein (Homo sapiens, UniProt Q96SW2).
T1 construct: purchased CISBIO 64BDCRBNPEH
Description: CRBN-binding affinity, HTRF (CEREBLON BINDING kit). Conditions: for inhibition at 0.5 µM: read-out: Inhibition Rate at 0.5 µM (%); for inhibition at 2 µM: read-out: Inhibition Rate at 2 µM (%). An excerpt: The CEREBLON BINDING kits (specification: 10,000 tests; product number: Catalog # 64BDCRBNPEH; CISBIO company) was used to determine the CRBN binding ability of the compounds to be tested through a HTRF method (homogeneous time-resolved fluorescence). The specific methods are as follows: • 1. […] Specifically, diluent #9 (1X) solution was used as the diluent, and multiple concentration gradients were set. […] Into the 96-well plate, the diluted test compounds and corresponding detection reagents were added, resulting in final test compound concentrations of 2 µM and 0.5 µM, respectively. […] Then, 2.5 µL of human Cereblon WT GST-tagged protein solution was added to each well. Finally, 5 µL of the thoroughly mixed Thalidomide-Re reagent and GST Eu antibody working solution were added to each of the aforementioned wells. […] The blank control wells were sequentially added with 2.5 µL of diluent #9 (1X) solution, 2.5 µL of PROTAC binding buffer, and 5 µL of thoroughly mixed Thalidomide-Re reagent and GST Eu antibody working solution. • 4.
(Time-resolved FRET reads energy transfer from a long-lived donor to a nearby acceptor.)

T1 sequence (Q96SW2 whole entry): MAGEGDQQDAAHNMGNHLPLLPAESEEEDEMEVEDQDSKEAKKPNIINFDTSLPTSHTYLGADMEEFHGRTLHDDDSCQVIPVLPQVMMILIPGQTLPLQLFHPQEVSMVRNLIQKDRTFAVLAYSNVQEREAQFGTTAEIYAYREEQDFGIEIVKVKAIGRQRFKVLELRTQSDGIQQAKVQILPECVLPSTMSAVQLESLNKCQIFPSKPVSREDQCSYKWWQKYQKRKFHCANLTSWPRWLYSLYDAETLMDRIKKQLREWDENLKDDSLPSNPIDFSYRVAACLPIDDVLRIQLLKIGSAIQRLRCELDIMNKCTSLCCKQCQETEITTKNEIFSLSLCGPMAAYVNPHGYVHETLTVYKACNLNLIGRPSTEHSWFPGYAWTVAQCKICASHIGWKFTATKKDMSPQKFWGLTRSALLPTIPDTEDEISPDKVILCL

As usually defined, the inhibition is the share of the control response that was lost under treatment. For the compound `COc1cc(N2CCC(N3CCN(C)CC3)CC2)ccc1Nc1ncc(Cl)c(Nc2ccccc2P(C)(C)=O)n1` [Brigatinib, reference compound], the inhibition at 0.5 µM is 0 to 10% and the inhibition at 2 µM was in the range of 10 to 20%.
The like results for `COc1cc(N2CCC(N3CCN(Cc4cccc5c4CN(C4CCC(=O)NC4=O)C5=S)CC3)CC2)c(C)cc1Nc1ncc(Br)c(Nc2ccc3nccnc3c2P(C)(C)=O)n1` (stereo not drawn) [GT-05058, 3-(4-((4-(1-(4-((5-bromo-4-((5-(dimethylphosphoryl)quinoxalin-6-yl)amino)pyrimidin-2-yl)amino)-5-methoxy-2-methylphenyl)piperidin-4-yl)piperazin-1-yl)methyl)-1-thioxoisoindolin-2-yl)piperidine-2,6-dione] were, in that order, 40 to 53% and 80 to 100%.
The like results for `Nc1ncnc2c1c(-c1ccc(Oc3ccccc3)cc1)nn2C1CCN(Cc2cccc3c2CN(C2CCC(=O)NC2=O)C3=S)CC1` (stereo not drawn) [GT-05074, 3-(4-((4-(4-amino-3-(4-phenoxyphenyl)-1H-pyrazolo[3,4-d]pyrimidin-1-yl)piperidin-1-yl)methyl)-1-thioxoisoindolin-2-yl)piperidine-2,6-dione] were, in that order, 40 to 53% and 60 to 80%.
The like results for `CC(C)Nc1cc(-n2ccc3cc(C#N)cnc32)ncc1C(=O)NC1CCN(Cc2ccc3c(c2)CN(C2CCC(=O)NC2=O)C3=S)CC1` (stereo not drawn) [GT-05294, 6-(5-cyano-1H-pyrrolo[2,3-b]pyridin-1-yl)-N-(1-((2-(2,6-dioxopiperidin-3-yl)-1-thioxoisoindolin-5-yl)methyl)piperidin-4-yl)-4-(isopropylamino)nicotinamide] were, in that order, 60 to 80% and 80 to 100%.
On to `COc1cc2nn(C3CCN(Cc4ccc5c(c4)CN(C4CCC(=O)NC4=O)C5=S)CC3)cc2cc1NC(=O)c1cccc(C(F)(F)F)c1` (stereo not drawn) [GT-05295, N-(2-(1-((2-(2,6-dioxopiperidin-3-yl)-1-thioxoisoindolin-5-yl)methyl)piperidin-4-yl)-6-methoxy-2H-indazol-5-yl)-3-(trifluoromethyl)benzamide], for which the inhibition at 0.5 µM is 60 to 80% and the inhibition at 2 µM was 80 to 100%.
The like results for `CC(C)(O)c1cc2nc(C3CCN(Cc4ccc5c(c4)CN(C4CCC(=O)NC4=O)C5=S)CC3)sc2cc1NC(=O)c1cccc(C(F)(F)F)n1` (stereo not drawn) [GT-05298, N-(2-(1-((2-(2,6-dioxopiperidin-3-yl)-1-thioxoisoindolin-5-yl)methyl)piperidin-4-yl)-5-(2-hydroxypropan-2-yl)benzo[d]thiazol-6-yl)-6-(trifluoromethyl)picolinamide] were, in that order, 80 to 100% and 80 to 100%.
Regarding `CC(C)(O)c1cc2nc(C3CCN(Cc4ccc5c(c4)CN(C4CCC(=O)NC4=O)C5=S)CC3)oc2cc1NC(=O)c1cccc(C(F)(F)F)n1` (stereo not drawn) [GT-05320, N-(2-(1-((2-(2,6-dioxopiperidin-3-yl)-1-thioxoisoindolin-5-yl)methyl)piperidin-4-yl)-5-(2-hydroxypropan-2-yl)benzo[d]oxazol-6-yl)-6-(trifluoromethyl)picolinamide], the inhibition at 0.5 µM is 80 to 100% and the inhibition at 2 µM lay in the range of 80 to 100%.
On to `Nc1nnc(-c2cc(F)ccc2O)cc1N1CCN(Cc2ccc3c(c2)CN(C2CCC(=O)NC2=O)C3=S)CC1` (stereo not drawn) [GT-08712, 3-(5-((4-(3-amino-6-(5-fluoro-2-hydroxyphenyl)pyridazin-4-yl)piperazin-1-yl)methyl)-1-thioxoisoindolin-2-yl)piperidine-2,6-dione], for which the inhibition at 0.5 µM lay in the range of 60 to 80% and the inhibition at 2 µM was 80 to 100%.
The like results for `Nc1nnc(-c2cc(F)ccc2O)cc1N1CC2CCC(C1)N2Cc1ccc2c(c1)CN(C1CCC(=O)NC1=O)C2=S` (stereo not drawn) [GT-08713, 3-(5-((3-(3-amino-6-(5-fluoro-2-hydroxyphenyl)pyridazin-4-yl)-3,8-diazabicyclo[3.2.1]octan-8-yl)methyl)-1-thioxoisoindolin-2-yl)piperidine-2,6-dione] were, in that order, 40 to 53% and 80 to 100%.
The like results for `N#CC1(CNc2nc(-c3cc(NC4CCN(Cc5ccc6c(c5)C(=S)N(C5CCC(=O)NC5=O)C6)CC4)ncc3Cl)cs2)CCOCC1` (stereo not drawn) [GT-08750, 4-(((4-(5-chloro-2-((1-((2-(2,6-dioxopiperidin-3-yl)-3-thioxoisoindolin-5-yl)methyl)piperidin-4-yl)amino)pyridin-4-yl)thiazol-2-yl)amino)methyl)tetrahy dro-2H-pyran-4-carbonitrile] were, in that order, 60 to 80% and 80 to 100%.
The like results for `COC1CCN(c2nccc(Nc3cc4c(cn3)c(N3CCN(Cc5cccc6c5CN(C5CCC(=O)NC5=O)C6=S)CC3)nn4C(C)C)n2)CC1` (stereo not drawn) [GT-08759, 3-(4-((4-(1-isopropyl-6-((2-(4-methoxypiperidin-1-yl)pyrimidin-4-yl)amino)-1H-pyrazolo[4,3-c]pyridin-3-yl)piperazin-1-yl)methyl)-1-thioxoisoindolin-2-yl)piperidine-2,6-dione] were, in that order, 30 to 40% and 60 to 80%.
On to `O=C1CCC(N2Cc3cc(CN4CCN(c5ncc(C(=O)Nc6ccc(OC(F)(F)Cl)cc6)cc5-c5cc[nH]n5)CC4)ccc3C2=S)C(=O)N1` (stereo not drawn) [GT-08769, N-(4-(chlorodifluoromethoxy)phenyl)-6-(4-((2-(2,6-dioxopiperidin-3-yl)-1-thioxoisoindolin-5-yl)methyl)piperazin-1-yl)-5-(1H-pyrazol-3-yl)nicotinamide], for which the inhibition at 0.5 µM was in the range of 53 to 60% and the inhibition at 2 µM was 80 to 100%.
The like results for `O=C1CCC(N2Cc3c(CN4CCN(c5ncc(C(=O)Nc6ccc(OC(F)(F)Cl)cc6)cc5-c5cc[nH]n5)CC4)cccc3C2=S)C(=O)N1` (stereo not drawn) [GT-08775, N-(4-(chlorodifluoromethoxy)phenyl)-6-(4-((2-(2,6-dioxopiperidin-3-yl)-1-thioxoisoindolin-4-yl)methyl)piperazin-1-yl)-5-(1H-pyrazol-3-yl)nicotinamide] were, in that order, 30 to 40% and 60 to 80%.
The like results for `Nc1nnc(-c2ccccc2O)cc1N1CCN(Cc2ccc3c(c2)CN(C2CCC(=O)NC2=O)C3=S)CC1` (stereo not drawn) [GT-08785, 3-(5-((4-(3-amino-6-(2-hydroxyphenyl)pyridazin-4-yl)piperazin-1-yl)methyl)-1-thioxoisoindolin-2-yl)piperidine-2,6-dione] were, in that order, 60 to 80% and 80 to 100%.
For `Nc1nnc(-c2cc(F)ccc2O)cc1N1CCN(Cc2cccc3c2CN(C2CCC(=O)NC2=O)C3=S)CC1` (stereo not drawn) [GT-08788, 3-(4-((4-(3-amino-6-(5-fluoro-2-hydroxyphenyl)pyridazin-4-yl)piperazin-1-yl)methyl)-1-thioxoisoindolin-2-yl)piperidine-2,6-dione], the inhibition at 0.5 µM is 40 to 53% and the inhibition at 2 µM lay within 80 to 100%.
Consider `Nc1nnc(-c2cc(F)ccc2O)cc1N1CCN(Cc2ccc3c(c2)C(=S)N(C2CCC(=O)NC2=O)C3)CC1` (stereo not drawn) [GT-08789, 3-(6-((4-(3-amino-6-(5-fluoro-2-hydroxyphenyl)pyridazin-4-yl)piperazin-1-yl)methyl)-1-thioxoisoindolin-2-yl)piperidine-2,6-dione], for which the inhibition at 0.5 µM lay within 60 to 80% and the inhibition at 2 µM fell in the range of 80 to 100%.
The like results for `Nc1nnc(-c2cc(F)ccc2O)cc1N1CC2CCC(C1)N2Cc1cccc2c1CN(C1CCC(=O)NC1=O)C2=S` (stereo not drawn) [GT-08790, 3-(4-((3-(3-amino-6-(5-fluoro-2-hydroxyphenyl)pyridazin-4-yl)-3,8-diazabicyclo[3.2.1]octan-8-yl)methyl)-1-thioxoisoindolin-2-yl)piperidine-2,6-dione] were, in that order, 60 to 80% and 80 to 100%.
The like results for `Nc1nnc(-c2cc(F)ccc2O)cc1N1CC2CCC(C1)N2Cc1ccc2c(c1)C(=S)N(C1CCC(=O)NC1=O)C2` (stereo not drawn) [GT-08791, 3-(6-((3-(3-amino-6-(5-fluoro-2-hydroxyphenyl)pyridazin-4-yl)-3,8-diazabicyclo[3.2.1]octan-8-yl)methyl)-1-thioxoisoindolin-2-yl)piperidine-2,6-dione] were, in that order, 40 to 53% and 80 to 100%.
The like results for `Cc1cc(S(=O)(=O)N2CCN(Cc3ccc4c(c3)C(=S)N(C3CCC(=O)NC3=O)C4)CC2)ccc1Nc1ncc(Br)c(Nc2cccc(F)c2C(N)=O)n1` (stereo not drawn) [GT-08794, 2-((5-bromo-2-((4-((4-((2-(2,6-dioxopiperidin-3-yl)-3-thioxoisoindolin-5-yl)methyl)piperazin-1-yl)sulfonyl)-2-methylphenyl)amino)pyrimidin-4-yl)amino)-6-fluorobenzamide] were, in that order, 53 to 60% and 60 to 80%.
Consider `Nc1nc(Nc2ccc(S(=O)(=O)N3CCN(Cc4cccc5c4CN(C4CCC(=O)NC4=O)C5=S)CC3)cc2)nn1C(=O)c1c(F)cccc1F` (stereo not drawn) [GT-08795, 3-(4-((4-((4-((5-amino-1-(2,6-difluorobenzoyl)-1H-1,2,4-triazol-3-yl)amino)phenyl)sulfony 1)piperazin-1-yl)methyl)-1-thioxoisoindolin-2-yl)piperidine-2,6-dione], for which the inhibition at 0.5 µM fell in the range of 53 to 60% and the inhibition at 2 µM was in the range of 60 to 80%.
The like results for `Nc1nc(Nc2ccc(S(=O)(=O)N3CCN(Cc4ccc5c(c4)C(=S)N(C4CCC(=O)NC4=O)C5)CC3)cc2)nn1C(=O)c1c(F)cccc1F` (stereo not drawn) [GT-08796, 3-(6-((4-((4-((5-amino-1-(2,6-difluorobenzoyl)-1H-1,2,4-triazol-3-yl)amino)phenyl)sulfonyl)piperazin-1-yl)methyl)-1-thioxoisoindolin-2-yl)piperidine-2,6-dione] were, in that order, 80 to 100% and 80 to 100%.

The values above are taken from patent EP4745138A1, “THIO-GLUTARIMIDO ISOINDOLINONE DERIVATIVE, BIFUNCTIONAL PROTEIN DEGRADER CONTAINING SAME, AND USES THEREOF” (Gluetacs Therapeutics (Shanghai) Co., Ltd., priority 2023, dated 2025).
